Data reported in the supplement of paper PMC10733146.

Experiments:
Assay in all cases: viability relative to DMSO control (fraction); higher = less drug effect (more viable cells)
Settings in all cases: 48 h
[1] = test system: primary AML patient cells (S006)
In short: (§1)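 Cells were incubated for 48 h at 37 °C and 5% CO2 in RPMI-1640 with penicillin/streptomycin, L-glutamine and human serum, at 4 × 10^4 cells per well in 384-well plates with compounds pre-plated at five concentrations, one well each. These were primary mononuclear tumour cells, fresh or cryopreserved, Ficoll-isolated from blood or bone marrow or obtained from processed lymph node. Viability values are CellTiter-Glo luminescence relative to the median of 16 inner DMSO wells.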

[2] = test system: primary AML patient cells (S011)
In short: as §1

[3] = test system: primary AML patient cells (S012)
In short: as §1

[4] = test system: primary AML patient cells (S037)
In short: as §1

[5] = test system: primary AML patient cells (S056)
In short: as §1

[6] = test system: primary AML patient cells (S081)
In short: as §1

[7] = test system: primary AML patient cells (S085)
In short: as §1

[8] = test system: primary BL patient cells (S005)
In short: as §1

[9] = test system: primary CLL patient cells (S031)
In short: as §1

[10] = test system: primary CLL patient cells (S043)
In short: as §1

[11] = test system: primary MCL patient cells (S041)
In short: as §1

[12] = test system: primary MCL patient cells (S063)
In short: as §1

[13] = test system: primary MCL patient cells (S068)
In short: as §1

[14] = test system: primary T-PLL patient cells (S008)
In short: as §1

**Q.** Which viability ([1]; 0.024 µM) does the source give for `O=C(Nc1cccc(C(F)(F)F)c1)Nc1cc(S(=O)(=O)NC2CC2)ccc1-c1ccsc1` [AGI-6780] here?
**A.** The viability was 0.94.

**Q.** What about the viability ([1]; 0.12 µM) of the same compound?
**A.** The viability was 1.01.

**Q.** And the viability ([1]; 0.6 µM)?
**A.** The viability was 1.02.

**Q.** What about the viability ([1]; 3 µM) of the same compound?
**A.** The viability was 0.974.

**Q.** What about the viability ([1]; 15 µM) of the same compound?
**A.** The viability was 0.993.

**Q.** And the viability ([2]; 0.024 µM)?
**A.** Its viability is 0.76.

**Q.** What about the viability ([2]; 0.12 µM) of the same compound?
**A.** Its viability is 0.761.

**Q.** What about the viability ([2]; 0.6 µM) of the same compound?
**A.** The viability was 0.802.

**Q.** And the viability ([2]; 3 µM)?
**A.** The viability was 0.778.

**Q.** What about the viability ([2]; 15 µM) of the same compound?
**A.** Its viability is 0.666.

**Q.** And the viability ([3]; 0.024 µM)?
**A.** The viability was 1.03.

**Q.** And the viability ([3]; 0.12 µM)?
**A.** Its viability is 1.01.

**Q.** What about the viability ([3]; 0.6 µM) of the same compound?
**A.** Its viability is 1.

**Q.** What about the viability ([3]; 3 µM) of the same compound?
**A.** Its viability is 0.941.

**Q.** What about the viability ([3]; 15 µM) of the same compound?
**A.** Its viability is 0.868.

**Q.** And the viability ([4]; 0.024 µM)?
**A.** The viability was 0.971.

**Q.** What about the viability ([4]; 0.12 µM) of the same compound?
**A.** The viability was 1.02.

**Q.** And the viability ([4]; 0.6 µM)?
**A.** Its viability is 0.955.

**Q.** And the viability ([4]; 3 µM)?
**A.** Its viability is 0.877.

**Q.** And the viability ([4]; 15 µM)?
**A.** The viability was 0.889.

**Q.** And the viability ([5]; 0.024 µM)?
**A.** Its viability is 1.03.

**Q.** And the viability ([5]; 0.12 µM)?
**A.** The viability was 0.821.

**Q.** What about the viability ([5]; 0.6 µM) of the same compound?
**A.** Its viability is 0.834.

**Q.** And the viability ([5]; 3 µM)?
**A.** Its viability is 0.783.

**Q.** And the viability ([5]; 15 µM)?
**A.** The viability was 0.7.

**Q.** And the viability ([6]; 0.024 µM)?
**A.** The viability was 0.829.

**Q.** What about the viability ([6]; 0.12 µM) of the same compound?
**A.** The viability was 0.956.

**Q.** What about the viability ([6]; 0.6 µM) of the same compound?
**A.** The viability was 0.878.

**Q.** And the viability ([6]; 3 µM)?
**A.** The viability was 0.756.

**Q.** And the viability ([6]; 15 µM)?
**A.** The viability was 0.841.

**Q.** What about the viability ([7]; 0.024 µM) of the same compound?
**A.** The viability was 0.793.

**Q.** What about the viability ([7]; 0.12 µM) of the same compound?
**A.** Its viability is 0.809.

**Q.** And the viability ([7]; 0.6 µM)?
**A.** Its viability is 0.734.

**Q.** And the viability ([7]; 3 µM)?
**A.** The viability was 0.672.

**Q.** And the viability ([7]; 15 µM)?
**A.** The viability was 0.691.

**Q.** What about the viability ([8]; 0.024 µM) of the same compound?
**A.** The viability was 0.818.

**Q.** And the viability ([8]; 0.12 µM)?
**A.** The viability was 0.915.

**Q.** What about the viability ([8]; 0.6 µM) of the same compound?
**A.** The viability was 0.932.

**Q.** And the viability ([8]; 3 µM)?
**A.** Its viability is 0.778.

**Q.** What about the viability ([8]; 15 µM) of the same compound?
**A.** Its viability is 0.886.

**Q.** And the viability ([9]; 0.024 µM)?
**A.** Its viability is 0.679.

**Q.** And the viability ([9]; 0.12 µM)?
**A.** Its viability is 0.703.

**Q.** And the viability ([9]; 0.6 µM)?
**A.** Its viability is 0.727.

**Q.** And the viability ([9]; 3 µM)?
**A.** Its viability is 0.701.

**Q.** And the viability ([9]; 15 µM)?
**A.** Its viability is 0.612.

**Q.** And the viability ([10]; 0.024 µM)?
**A.** The viability was 0.927.

**Q.** And the viability ([10]; 0.12 µM)?
**A.** Its viability is 1.05.

**Q.** And the viability ([10]; 0.6 µM)?
**A.** The viability was 0.988.

**Q.** And the viability ([10]; 3 µM)?
**A.** The viability was 0.905.

**Q.** And the viability ([10]; 15 µM)?
**A.** Its viability is 0.935.

**Q.** And the viability ([11]; 0.024 µM)?
**A.** Its viability is 0.913.

**Q.** And the viability ([11]; 0.12 µM)?
**A.** Its viability is 0.898.

**Q.** And the viability ([11]; 0.6 µM)?
**A.** Its viability is 0.856.

**Q.** And the viability ([11]; 3 µM)?
**A.** The viability was 0.868.

**Q.** What about the viability ([11]; 15 µM) of the same compound?
**A.** Its viability is 0.806.

**Q.** And the viability ([12]; 0.024 µM)?
**A.** The viability was 0.935.

**Q.** What about the viability ([12]; 0.12 µM) of the same compound?
**A.** The viability was 0.969.

**Q.** What about the viability ([12]; 0.6 µM) of the same compound?
**A.** The viability was 0.96.

**Q.** What about the viability ([12]; 3 µM) of the same compound?
**A.** Its viability is 0.843.

**Q.** And the viability ([12]; 15 µM)?
**A.** The viability was 0.982.

**Q.** And the viability ([13]; 0.024 µM)?
**A.** Its viability is 0.751.

**Q.** What about the viability ([13]; 0.12 µM) of the same compound?
**A.** The viability was 0.809.

**Q.** And the viability ([13]; 0.6 µM)?
**A.** The viability was 0.786.

**Q.** What about the viability ([13]; 3 µM) of the same compound?
**A.** The viability was 0.722.

**Q.** And the viability ([13]; 15 µM)?
**A.** The viability was 0.798.

**Q.** What about the viability ([14]; 0.024 µM) of the same compound?
**A.** The viability was 0.865.

**Q.** And the viability ([14]; 0.12 µM)?
**A.** Its viability is 0.979.

**Q.** And the viability ([14]; 0.6 µM)?
**A.** Its viability is 0.937.

**Q.** What about the viability ([14]; 3 µM) of the same compound?
**A.** Its viability is 0.863.

**Q.** What about the viability ([14]; 15 µM) of the same compound?
**A.** Its viability is 0.825.
